What was measured:
[1] = biological target: T1, Gastric inhibitory polypeptide receptor (Homo sapiens, UniProt P48546)
T1 sequence (P48546 whole entry): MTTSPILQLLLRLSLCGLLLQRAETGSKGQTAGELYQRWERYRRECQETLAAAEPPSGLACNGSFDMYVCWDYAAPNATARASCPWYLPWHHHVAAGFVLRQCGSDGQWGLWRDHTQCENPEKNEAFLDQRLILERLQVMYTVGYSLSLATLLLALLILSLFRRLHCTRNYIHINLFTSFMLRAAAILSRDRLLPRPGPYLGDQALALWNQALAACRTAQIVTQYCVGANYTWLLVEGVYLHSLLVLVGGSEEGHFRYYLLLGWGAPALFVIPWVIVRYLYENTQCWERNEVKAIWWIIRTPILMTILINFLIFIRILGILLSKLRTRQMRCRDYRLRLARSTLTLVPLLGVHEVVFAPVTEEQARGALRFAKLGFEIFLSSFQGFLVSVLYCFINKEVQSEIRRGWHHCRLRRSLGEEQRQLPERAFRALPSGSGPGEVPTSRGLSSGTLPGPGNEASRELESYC

[2] = biological target: T2, Muscarinic acetylcholine receptor M2 (Homo sapiens, UniProt P08172)
T2 sequence (P08172 whole entry): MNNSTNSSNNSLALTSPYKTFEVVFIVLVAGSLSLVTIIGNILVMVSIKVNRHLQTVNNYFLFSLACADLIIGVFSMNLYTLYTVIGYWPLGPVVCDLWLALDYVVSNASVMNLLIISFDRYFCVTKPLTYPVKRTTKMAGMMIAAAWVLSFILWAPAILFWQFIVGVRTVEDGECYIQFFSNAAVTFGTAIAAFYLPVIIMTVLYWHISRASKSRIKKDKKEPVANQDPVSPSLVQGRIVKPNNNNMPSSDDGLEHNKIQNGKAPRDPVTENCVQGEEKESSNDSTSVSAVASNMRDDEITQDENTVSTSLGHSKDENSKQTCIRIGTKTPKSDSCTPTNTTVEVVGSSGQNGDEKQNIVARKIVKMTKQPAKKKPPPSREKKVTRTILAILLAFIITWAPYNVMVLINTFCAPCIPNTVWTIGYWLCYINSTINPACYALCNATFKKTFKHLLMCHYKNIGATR

Mu-type opioid receptor = Mu-type opioid receptor (Homo sapiens, UniProt P35372)
Sequence of Mu-type opioid receptor (P35372 whole entry): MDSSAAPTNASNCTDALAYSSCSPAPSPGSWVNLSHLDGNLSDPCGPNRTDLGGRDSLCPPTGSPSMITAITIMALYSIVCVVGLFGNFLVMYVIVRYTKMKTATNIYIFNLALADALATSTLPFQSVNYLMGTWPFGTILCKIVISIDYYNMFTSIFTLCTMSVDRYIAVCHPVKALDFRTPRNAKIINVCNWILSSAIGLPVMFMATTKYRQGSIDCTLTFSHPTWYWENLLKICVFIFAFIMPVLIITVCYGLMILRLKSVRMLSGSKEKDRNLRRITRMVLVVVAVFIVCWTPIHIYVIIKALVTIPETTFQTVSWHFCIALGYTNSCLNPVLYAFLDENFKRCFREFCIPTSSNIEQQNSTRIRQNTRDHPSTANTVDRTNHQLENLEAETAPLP

[3] = biological target: Sodium-dependent serotonin transporter (Homo sapiens, UniProt P31645)
Sequence of Sodium-dependent serotonin transporter (P31645 whole entry): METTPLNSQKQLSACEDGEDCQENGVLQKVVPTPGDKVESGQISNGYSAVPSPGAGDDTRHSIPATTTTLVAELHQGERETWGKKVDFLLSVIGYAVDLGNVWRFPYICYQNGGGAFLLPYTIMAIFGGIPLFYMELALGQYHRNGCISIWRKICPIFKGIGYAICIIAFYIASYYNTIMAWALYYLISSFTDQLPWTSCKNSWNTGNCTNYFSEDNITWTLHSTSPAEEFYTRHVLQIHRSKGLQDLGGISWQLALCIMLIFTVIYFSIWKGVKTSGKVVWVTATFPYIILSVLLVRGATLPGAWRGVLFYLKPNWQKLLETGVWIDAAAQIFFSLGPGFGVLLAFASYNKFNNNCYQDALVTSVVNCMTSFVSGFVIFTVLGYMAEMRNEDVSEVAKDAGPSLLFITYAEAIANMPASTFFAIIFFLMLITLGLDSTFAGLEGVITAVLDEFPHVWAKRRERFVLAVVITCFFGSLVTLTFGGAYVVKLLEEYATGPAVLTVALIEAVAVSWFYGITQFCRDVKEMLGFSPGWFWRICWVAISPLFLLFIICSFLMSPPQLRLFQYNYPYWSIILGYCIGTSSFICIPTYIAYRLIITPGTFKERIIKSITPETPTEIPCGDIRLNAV

[4] = biological target: T3, Corticotropin-releasing factor receptor 1 (Homo sapiens, UniProt P34998)
T3 sequence (P34998 whole entry): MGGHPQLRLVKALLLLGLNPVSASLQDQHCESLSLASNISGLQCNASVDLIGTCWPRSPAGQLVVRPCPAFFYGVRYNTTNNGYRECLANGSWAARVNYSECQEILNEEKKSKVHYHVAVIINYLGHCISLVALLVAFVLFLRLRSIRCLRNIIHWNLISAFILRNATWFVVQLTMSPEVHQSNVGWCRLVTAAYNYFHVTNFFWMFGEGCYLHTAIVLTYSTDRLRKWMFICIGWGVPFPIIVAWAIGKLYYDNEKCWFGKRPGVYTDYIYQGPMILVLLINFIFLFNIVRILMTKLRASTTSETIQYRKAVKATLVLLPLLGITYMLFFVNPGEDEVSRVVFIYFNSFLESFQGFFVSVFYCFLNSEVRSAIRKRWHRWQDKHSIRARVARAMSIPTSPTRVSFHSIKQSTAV

D(1A) dopamine receptor = D(1A) dopamine receptor (Homo sapiens, UniProt P21728)
Sequence of D(1A) dopamine receptor (P21728 whole entry): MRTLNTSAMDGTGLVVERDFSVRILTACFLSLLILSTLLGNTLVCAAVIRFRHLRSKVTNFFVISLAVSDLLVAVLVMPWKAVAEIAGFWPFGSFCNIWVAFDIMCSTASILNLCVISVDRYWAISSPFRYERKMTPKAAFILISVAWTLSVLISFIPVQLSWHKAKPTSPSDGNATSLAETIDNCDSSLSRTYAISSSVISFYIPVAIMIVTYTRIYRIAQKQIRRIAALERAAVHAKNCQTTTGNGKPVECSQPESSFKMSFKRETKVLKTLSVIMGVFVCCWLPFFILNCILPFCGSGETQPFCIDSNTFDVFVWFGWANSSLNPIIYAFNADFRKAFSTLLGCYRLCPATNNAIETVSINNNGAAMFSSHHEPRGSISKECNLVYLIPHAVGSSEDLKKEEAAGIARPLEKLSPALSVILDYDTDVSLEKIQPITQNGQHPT

[5] = biological target: T4, Neuropeptide Y receptor type 2 (Homo sapiens, UniProt P49146)
T4 sequence (P49146 whole entry): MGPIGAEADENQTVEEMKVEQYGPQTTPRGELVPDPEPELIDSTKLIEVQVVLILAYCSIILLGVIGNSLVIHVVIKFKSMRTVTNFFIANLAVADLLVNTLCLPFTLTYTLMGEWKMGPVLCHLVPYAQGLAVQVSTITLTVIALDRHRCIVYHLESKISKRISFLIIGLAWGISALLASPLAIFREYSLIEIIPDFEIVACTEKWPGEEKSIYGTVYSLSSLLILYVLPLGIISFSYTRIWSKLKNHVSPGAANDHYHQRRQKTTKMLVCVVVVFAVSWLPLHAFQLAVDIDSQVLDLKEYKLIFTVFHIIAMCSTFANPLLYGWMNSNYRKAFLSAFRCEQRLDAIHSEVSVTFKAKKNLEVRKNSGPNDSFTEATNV

[6] = biological target: Sodium-dependent noradrenaline transporter (Homo sapiens, UniProt P23975)
Sequence of Sodium-dependent noradrenaline transporter (P23975 whole entry): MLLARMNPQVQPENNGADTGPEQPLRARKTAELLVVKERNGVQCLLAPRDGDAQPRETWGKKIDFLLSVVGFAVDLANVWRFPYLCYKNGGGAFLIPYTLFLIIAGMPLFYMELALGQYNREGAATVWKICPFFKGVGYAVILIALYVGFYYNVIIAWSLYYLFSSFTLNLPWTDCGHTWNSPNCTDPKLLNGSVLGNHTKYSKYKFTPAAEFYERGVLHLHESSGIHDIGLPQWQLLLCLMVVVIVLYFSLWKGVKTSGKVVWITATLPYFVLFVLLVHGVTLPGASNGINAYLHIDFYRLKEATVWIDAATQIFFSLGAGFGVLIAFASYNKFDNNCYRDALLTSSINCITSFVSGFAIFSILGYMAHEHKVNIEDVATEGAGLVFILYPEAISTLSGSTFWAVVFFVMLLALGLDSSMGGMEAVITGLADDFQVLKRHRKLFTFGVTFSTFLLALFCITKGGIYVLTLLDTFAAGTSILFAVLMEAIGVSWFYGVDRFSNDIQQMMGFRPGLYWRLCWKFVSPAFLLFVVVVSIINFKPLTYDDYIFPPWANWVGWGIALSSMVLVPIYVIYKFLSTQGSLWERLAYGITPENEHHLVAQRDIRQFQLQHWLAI

[7] = biological target: T5, Gastrin/cholecystokinin type B receptor (Homo sapiens, UniProt P32239)
T5 sequence (P32239 whole entry): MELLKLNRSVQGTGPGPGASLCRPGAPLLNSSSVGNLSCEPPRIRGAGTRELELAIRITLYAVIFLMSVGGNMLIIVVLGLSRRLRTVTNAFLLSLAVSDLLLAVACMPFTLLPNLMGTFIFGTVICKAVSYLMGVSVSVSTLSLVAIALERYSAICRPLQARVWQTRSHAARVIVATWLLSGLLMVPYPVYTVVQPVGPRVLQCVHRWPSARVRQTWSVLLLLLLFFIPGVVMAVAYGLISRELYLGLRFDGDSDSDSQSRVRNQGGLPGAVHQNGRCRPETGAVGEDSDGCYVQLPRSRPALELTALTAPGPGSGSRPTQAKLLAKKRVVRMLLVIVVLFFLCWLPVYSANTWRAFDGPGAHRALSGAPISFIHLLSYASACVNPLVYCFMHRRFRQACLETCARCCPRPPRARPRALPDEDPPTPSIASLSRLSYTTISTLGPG

Glucagon receptor = Glucagon receptor (Homo sapiens, UniProt P47871)
Sequence of Glucagon receptor (P47871 whole entry): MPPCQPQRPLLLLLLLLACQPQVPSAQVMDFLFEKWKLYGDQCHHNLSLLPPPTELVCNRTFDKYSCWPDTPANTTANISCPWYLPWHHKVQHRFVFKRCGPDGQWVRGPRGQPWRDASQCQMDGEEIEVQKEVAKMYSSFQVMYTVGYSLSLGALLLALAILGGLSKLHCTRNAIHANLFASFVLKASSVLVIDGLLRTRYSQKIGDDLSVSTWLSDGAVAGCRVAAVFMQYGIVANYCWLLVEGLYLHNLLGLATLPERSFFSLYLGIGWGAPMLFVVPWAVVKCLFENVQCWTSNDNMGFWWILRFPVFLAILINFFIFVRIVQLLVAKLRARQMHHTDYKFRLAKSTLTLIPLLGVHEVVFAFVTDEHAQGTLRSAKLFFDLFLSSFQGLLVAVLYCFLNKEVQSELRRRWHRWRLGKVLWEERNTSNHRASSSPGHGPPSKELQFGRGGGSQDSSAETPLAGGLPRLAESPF

[8] = biological target: T2, Muscarinic acetylcholine receptor M2; assay type: functional, cell-based

Measured: AC50
Further: assay procedure not described here.

C[C@]1(COc2ccc(N3CCC(Oc4ccc(OC(F)(F)F)cc4)CC3)cc2)Cn2cc([N+](=O)[O-])nc2O1
> 30 µM: [1] | [4] | [5] | [7] | Glucagon receptor
not listed: [8]
> 10 µM: all other assays above

C[C@H]1C[C@H]2[C@@H]3CCC4=CC(=O)C=C[C@]4(C)[C@@]3(Cl)[C@@H](O)C[C@]2(C)[C@@]1(O)C(=O)CO [BECLOMETHASONE]
> 10 µM: [2] | D(1A) dopamine receptor | [6]
not listed: [3] | [8]
> 30 µM: all other assays above

CCn1cc(C(=O)O)c(=O)c2cc(F)c(N3CCNCC3)nc21 [ENOXACIN]
> 10 µM: [2] | Mu-type opioid receptor | D(1A) dopamine receptor | [6] | [8]
not listed: [3]
> 30 µM: all other assays above

COCCCOc1ccnc(C[S+]([O-])c2nc3ccccc3[nH]2)c1C (centres undefined) [RABEPRAZOLE]
> 10 µM: [2] | D(1A) dopamine receptor | [6] | [8]
not listed: [3]
> 30 µM: all other assays above
